Measurements: the OligoGym collection
These antisense oligonucleotides have a phosphorothioate backbone; sugars and methylation of C are not fully specified.

Each sequence was assayed against GNA11. Conditions: ASO.
Also: test concentration or dose not given here.

First: ACCAGATTGTACTCCTTC
Second: GGTCACCTTCTCCACGTC
The remaining target (mRNA or protein) (fraction of control) of the first is higher: at least 1 for the first, 0.73 for the second.

Compared with GGTTCAGGTCCACGAACA, CTTCACCTCATCGCTCAG is higher in remaining target (mRNA or protein) (fraction of control): 0.29 for the first, 0.8 for the second.

Compared with TGTCACGTTCTCAAAGCA, GACTCCTTCACCTCATCG is lower in remaining target (mRNA or protein) (fraction of control): at least 1 for the first, 0.85 for the second.

Going from CTTGAGCTCGCGCCGGGC to TAGACGAGCTTGGTGAAG, the remaining target (mRNA or protein) (fraction of control) rises from 0.69 to at least 1.

Going from ACGGCCGCGAACACGAAG to GATGAACTCCCGCGCCGC, the remaining target (mRNA or protein) (fraction of control) falls from 0.94 to 0.48.

First: CGTCTCCATGGCCCGGAT
Second: ATGATGGATGTCACGTTC
The remaining target (mRNA or protein) (fraction of control) of the first is lower: 0.51 for the first, at least 1 for the second.

First: GATGGACTCCAGAGTCAT
Second: CGTCCTGCTGGGTGGGCA
The remaining target (mRNA or protein) (fraction of control) of the first is higher: at least 1 for the first, 0.6 for the second.

CCAGGTCGAAAGGGTACT and GCCCGTGCCGAGCAGCAG cannot be ordered by remaining target (mRNA or protein) (fraction of control): at least 1 for the first, at least 1 for the second.

Going from CCATCCGGTTCTCGTTGT to CTCCGCTCCGACCGCTGG, the remaining target (mRNA or protein) (fraction of control) falls from 0.81 to 0.44.

Going from TCAGGTTCAGCTGCAGGA to CACGCCATGATGGACTCC, the remaining target (mRNA or protein) (fraction of control) rises from 0.97 to at least 1.

First: ACGTGCTCTTCCCGCTCT
Second: TCGATGATGCCGGTGGTG
The remaining target (mRNA or protein) (fraction of control) of the first is lower: 0.72 for the first, at least 1 for the second.

Compared with ATCCGGAAGATGATGTTC, ATCCGGTTCTCGTTGTCC is lower in remaining target (mRNA or protein) (fraction of control): at least 1 for the first, 0.78 for the second.

Compared with CAGGAGCGCATTGGCCTT, TCCTGGATGCCCGGGTCC is lower in remaining target (mRNA or protein) (fraction of control): at least 1 for the first, 0.7 for the second.

First: GCAGCAGCAGCTTGAGCT
Second: GTAGCCGGCGCCGTGGAT
The remaining target (mRNA or protein) (fraction of control) of the first is higher: at least 1 for the first, 0.99 for the second.

Compared with TGTCCTCCTCCGAGTAGC, GCAGGTCCTTCTTGTTGA is lower in remaining target (mRNA or protein) (fraction of control): at least 1 for the first, 0.94 for the second.

First: GGTCAACGTCGGTCAGGT
Second: ATCTGCTTGATGAACGTG
The remaining target (mRNA or protein) (fraction of control) of the first is lower: 0.82 for the first, at least 1 for the second.

CACGTGAAGTGTGAGTAG and CTGGATGCCCGGGTCCTC cannot be ordered by remaining target (mRNA or protein) (fraction of control): at least 1 for the first, at least 1 for the second.

Compared with GCTGAGGGCGACGAGAAA, TGCTCGTACTTGTAGAGG is higher in remaining target (mRNA or protein) (fraction of control): 0.25 for the first, 0.93 for the second.

First: GTAGGTGATGATGGTCCG
Second: AGGGCTTTGCTCTCCTCC
The remaining target (mRNA or protein) (fraction of control) of the first is higher: at least 1 for the first, 0.23 for the second.

First: CAGGGTCTTGATGGCACT
Second: CGACTCCACCAGGACTTG
The remaining target (mRNA or protein) (fraction of control) of the first is higher: at least 1 for the first, 0.6 for the second.

Going from CTCATCGCTCAGGCAACA to GCTGGTACTCGCGCCTGC, the remaining target (mRNA or protein) (fraction of control) rises from 0.39 to 0.59.

First: GGAGGAGTTCTGGAACCA
Second: TGAGGAAGAGGATGACGG
The remaining target (mRNA or protein) (fraction of control) of the first is lower: 0.36 for the first, at least 1 for the second.

Work on CTCGATCTCGGCGTTGAT yielded a remaining target (mRNA or protein) (fraction of control) of at least 1.

What follows are sequences tested against TNFRSF1A. Conditions: ASO.

Going from CCATTGAGGCAGAGGCTG to CAAAGACCAAAGAAAATG, the remaining target (mRNA or protein) (fraction of control) rises from 0.52 to 0.71.

Compared with GGTACTGGTTCTTCCTGC, AGGTGGTTTTCTGAAGCG is higher in remaining target (mRNA or protein) (fraction of control): 0.86 for the first, at least 1 for the second.

Compared with TTTTCACTCCAATAATGC, ACGGTGTTCTGTTTCTCC is lower in remaining target (mRNA or protein) (fraction of control): at least 1 for the first, 0.93 for the second.

First: ACAAAACAAAACAAAACA
Second: TTGTTCCGTGCTCGCCCC
The remaining target (mRNA or protein) (fraction of control) of the first is higher: 0.73 for the first, 0.59 for the second.

Compared with CGCAAAGTTGGGACAGTC, GCTTTTCTTACAGTTACT is higher in remaining target (mRNA or protein) (fraction of control): 0.7 for the first, 0.9 for the second.

In the case of CTTACAGTTACTACAGGA, the remaining target (mRNA or protein) (fraction of control) was 0.79.
